Literature values, collected in US7341711B2, “Porphyrin compounds and their use in high-field MRI” (Guerbet, priority 2004, dated 2008).
“And” between values parts separate entries of the source, which are not always exact repeats. Identical values can stand only once. Like-named read-outs stand apart in the source and are kept apart here.

Compound: O=S(=O)([O-])c1ccc(-c2c3nc(c(-c4ccc(S(=O)(=O)[O-])cc4)c4ccc([n-]4)c(-c4ccc(S(=O)(=O)[O-])cc4)c4ccc([n-]4)c(-c4ccc(S(=O)(=O)[O-])cc4)c4nc2C=C4)C=C3)cc1.[Mn+3] [MnTPPS4]
- relaxivity (at 1.5 T): 17 mmol⁻¹ s⁻¹
- relaxivity (field not stated): ~10 mmol⁻¹ s⁻¹
- relaxivity (in blood plasma at 0.25 T): 10.7 mmol⁻¹ s⁻¹ and 12.2 mmol⁻¹ s⁻¹
